Drawing on patent US7626031B2, “Substituted 3-(diarylmethylene)indolin-2-ones and methods of their use” (Symphony Evolution, Inc., priority 2002, dated 2009), this text covers IC50 for twelve molecules.

Experiment [1] has as its target Flt-1 (Homo sapiens, UniProt P17948). The experiment can be described thus: Kinase assay, Flt-1 (33P-ATP incorporation or luciferase-coupled ATP consumption). The experiment is classed as biochemical. Particulars: read-out: Flt1 IC50. Here is the method: Kinase assays were performed by measurement of incorporation of γ-^33P ATP into immobilized myelin basic protein (MBP). […] Plates were washed 3× with 100 μl TBS. […] Compound dilutions were performed in DMSO and added to assay wells to a final DMSO concentration of 1%. Each data point was measured in duplicate, and at least two duplicate assays were performed for each individual compound determination. Enzyme was added to final concentrations of 10 nM or 20 nM, for example. A mixture of unlabeled ATP and γ-^33P ATP was added to start the reaction (2×10^6 cpm of γ-^33P ATP per well (3000 Ci/mmole) and either 10 μM or 30 μM unlabeled ATP, typically. The reactions were carried out for 1 hour at room temperature with shaking. Plates were washed 7× with TBS, followed by the addition of 50 μl/well scintillation fluid (Wallac). Plates were read using a Wallac Trilux counter. This is only one format of such assays, various other formats are possible, as known to one of ordinary skill in the art.
Tyrosine kinase activity is determined by 1) measurement of kinase-dependent ATP consumption by in the presence of a generic substrate such as, polyglutamic acid, tyrosine, 4:1 (pEY), by luciferase/luciferin-mediated chemiluminescence or; 2) incorporation of radioactive phosphate derived from ^33P-ATP into a generic substrate which has been adsorbed onto the well surface of polystyrene microtiter plates. Phosphorylated substrate products are quantified by scintillation spectrometry.
(§1) Kinase activity and compound inhibition are investigated using one or more assay formats. The ATP concentrations for each assay are selected to be close to the Michaelis-Menten constant (KM) for each individual kinase. Dose-response experiments are performed at 10 different inhibitor concentrations in a 384-well plate format. […] Exemplary kinase assays are described below. KDR Assay

For experiment [2], the target named is FGFR1 (Homo sapiens, UniProt P11362). The experiment is described as follows: Kinase assay, FGFR1 (33P-ATP incorporation or luciferase-coupled ATP consumption). In kind it is biochemical. In a few lines:
(§2)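 Radiometric format: γ-33P ATP incorporation into plate-immobilized myelin basic protein, enzyme 10 nM or 20 nM, 10 μM or 30 μM unlabeled ATP, 1 h at room temperature, 1% DMSO, scintillation counting; alternatively luciferase-measured ATP consumption with pEY substrate. ATP set near each kinase's KM; 10-point dose-response.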

Experiment [3] deals with PDGFR alpha (Homo sapiens, UniProt P16234). The experiment is described as follows: Kinase assay, PDGFR alpha (33P-ATP incorporation or luciferase-coupled ATP consumption). In kind it is biochemical. Particulars: read-out: PDGF-R-A IC50. In a few lines:
as §2

Experiment [4] concerns the target Fyn (Homo sapiens, UniProt P06241). The experiment can be described thus: Kinase assay, Fyn. In kind it is biochemical. Here is the method: as §1
The target of experiment [5] is EGFR (Homo sapiens, UniProt P00533). The experiment is described as follows: Kinase assay, EGFR (33P-ATP incorporation or luciferase-coupled ATP consumption). The experiment is classed as biochemical. In outline:
as §2

The target of experiment [6] is IRK (Homo sapiens, UniProt P06213). The experiment can be described thus: Kinase assay, IRK. In kind it is biochemical. As for the experimental part:
as §1

Experiment [7] deals with EphA2 (Homo sapiens, UniProt P29317). The experiment is described as follows: Kinase assay, EphA2 (33P-ATP incorporation or luciferase-coupled ATP consumption). In kind it is biochemical. In outline: as §2
Experiment [8] addresses T1, KDR (baculovirus expressed human KDR kinase domain D807-V1356) (Homo sapiens, UniProt P35968).
T1 construct: human KDR kinase domain D807-V1356; host or cells: baculovirus expression system
The experiment is described as follows: biochemical. In a few lines:
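Baculovirus human KDR kinase domain (D807–V1356) with ATP near its KM; 10-point dose-response, 4 h at ambient temperature. Activity taken as percent ATP remaining, detected by luciferase–luciferin chemiluminescence.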

T1 sequence (P35968 807-1356): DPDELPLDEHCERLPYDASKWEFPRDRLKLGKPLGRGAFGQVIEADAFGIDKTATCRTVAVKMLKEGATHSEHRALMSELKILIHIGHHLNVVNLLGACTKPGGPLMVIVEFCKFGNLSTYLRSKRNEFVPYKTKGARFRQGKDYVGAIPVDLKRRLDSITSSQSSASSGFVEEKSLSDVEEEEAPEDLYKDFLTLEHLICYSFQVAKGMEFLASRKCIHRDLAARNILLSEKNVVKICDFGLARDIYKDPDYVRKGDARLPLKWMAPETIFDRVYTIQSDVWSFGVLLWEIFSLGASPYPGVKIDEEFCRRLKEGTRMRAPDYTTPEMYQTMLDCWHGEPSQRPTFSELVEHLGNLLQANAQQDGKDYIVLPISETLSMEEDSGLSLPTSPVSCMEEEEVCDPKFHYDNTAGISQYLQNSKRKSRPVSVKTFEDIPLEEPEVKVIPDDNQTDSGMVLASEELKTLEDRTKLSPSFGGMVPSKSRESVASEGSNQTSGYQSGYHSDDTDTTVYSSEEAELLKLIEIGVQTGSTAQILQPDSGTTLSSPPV
PDGFR alpha, sequence (P16234 24-1089): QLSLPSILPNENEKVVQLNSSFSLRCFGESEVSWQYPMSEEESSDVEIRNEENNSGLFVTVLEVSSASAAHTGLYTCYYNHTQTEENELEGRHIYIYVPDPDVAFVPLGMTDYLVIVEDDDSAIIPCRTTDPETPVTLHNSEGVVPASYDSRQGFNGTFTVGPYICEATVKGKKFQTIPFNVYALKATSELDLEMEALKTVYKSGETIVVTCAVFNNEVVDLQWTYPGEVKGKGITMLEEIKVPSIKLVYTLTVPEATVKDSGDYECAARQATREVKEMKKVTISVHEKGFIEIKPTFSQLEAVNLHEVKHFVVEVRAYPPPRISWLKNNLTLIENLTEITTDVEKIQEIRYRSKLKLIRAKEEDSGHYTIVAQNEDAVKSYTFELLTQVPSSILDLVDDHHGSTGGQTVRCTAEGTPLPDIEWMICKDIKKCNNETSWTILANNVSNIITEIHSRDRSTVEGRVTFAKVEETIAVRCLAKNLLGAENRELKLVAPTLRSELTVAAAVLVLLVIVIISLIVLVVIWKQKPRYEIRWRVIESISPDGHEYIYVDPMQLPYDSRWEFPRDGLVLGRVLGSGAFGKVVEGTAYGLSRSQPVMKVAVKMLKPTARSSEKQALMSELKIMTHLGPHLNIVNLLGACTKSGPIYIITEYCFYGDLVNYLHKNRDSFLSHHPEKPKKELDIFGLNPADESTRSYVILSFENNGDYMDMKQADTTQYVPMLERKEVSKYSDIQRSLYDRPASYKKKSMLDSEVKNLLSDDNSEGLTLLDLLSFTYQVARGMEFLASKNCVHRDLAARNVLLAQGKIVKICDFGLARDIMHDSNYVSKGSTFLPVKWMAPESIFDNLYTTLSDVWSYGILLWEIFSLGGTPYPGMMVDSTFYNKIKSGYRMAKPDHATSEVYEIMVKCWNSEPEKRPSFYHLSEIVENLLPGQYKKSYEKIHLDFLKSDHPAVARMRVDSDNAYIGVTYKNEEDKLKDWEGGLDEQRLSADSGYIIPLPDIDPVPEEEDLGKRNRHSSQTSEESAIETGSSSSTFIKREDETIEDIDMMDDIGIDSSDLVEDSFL
EphA2, sequence (P29317 24-976, species assumed): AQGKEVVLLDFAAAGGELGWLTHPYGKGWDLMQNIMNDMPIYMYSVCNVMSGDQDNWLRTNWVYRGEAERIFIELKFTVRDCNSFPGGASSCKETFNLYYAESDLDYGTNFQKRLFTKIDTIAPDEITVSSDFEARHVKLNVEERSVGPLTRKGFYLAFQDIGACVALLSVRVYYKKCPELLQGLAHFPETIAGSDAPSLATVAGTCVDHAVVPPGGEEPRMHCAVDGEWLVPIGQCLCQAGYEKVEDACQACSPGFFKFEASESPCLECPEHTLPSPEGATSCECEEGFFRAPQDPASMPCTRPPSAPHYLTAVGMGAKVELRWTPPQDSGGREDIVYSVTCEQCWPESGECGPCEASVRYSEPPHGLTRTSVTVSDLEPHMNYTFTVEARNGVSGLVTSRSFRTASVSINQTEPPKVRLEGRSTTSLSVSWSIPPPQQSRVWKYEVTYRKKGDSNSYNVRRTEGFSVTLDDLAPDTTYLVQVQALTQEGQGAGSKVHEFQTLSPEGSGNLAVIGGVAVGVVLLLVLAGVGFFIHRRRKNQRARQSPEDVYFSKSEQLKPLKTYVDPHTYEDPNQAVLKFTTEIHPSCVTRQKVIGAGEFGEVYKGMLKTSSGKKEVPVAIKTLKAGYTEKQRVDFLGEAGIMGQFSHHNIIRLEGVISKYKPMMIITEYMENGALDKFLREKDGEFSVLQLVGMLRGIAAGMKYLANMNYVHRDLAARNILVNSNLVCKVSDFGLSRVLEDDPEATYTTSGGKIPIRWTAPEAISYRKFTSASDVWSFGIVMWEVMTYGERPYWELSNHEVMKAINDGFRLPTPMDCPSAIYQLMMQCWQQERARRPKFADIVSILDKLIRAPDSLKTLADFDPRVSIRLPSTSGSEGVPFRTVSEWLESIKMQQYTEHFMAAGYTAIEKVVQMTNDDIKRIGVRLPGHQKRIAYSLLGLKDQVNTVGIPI
Flt-1, sequence (P17948 27-1338, species assumed): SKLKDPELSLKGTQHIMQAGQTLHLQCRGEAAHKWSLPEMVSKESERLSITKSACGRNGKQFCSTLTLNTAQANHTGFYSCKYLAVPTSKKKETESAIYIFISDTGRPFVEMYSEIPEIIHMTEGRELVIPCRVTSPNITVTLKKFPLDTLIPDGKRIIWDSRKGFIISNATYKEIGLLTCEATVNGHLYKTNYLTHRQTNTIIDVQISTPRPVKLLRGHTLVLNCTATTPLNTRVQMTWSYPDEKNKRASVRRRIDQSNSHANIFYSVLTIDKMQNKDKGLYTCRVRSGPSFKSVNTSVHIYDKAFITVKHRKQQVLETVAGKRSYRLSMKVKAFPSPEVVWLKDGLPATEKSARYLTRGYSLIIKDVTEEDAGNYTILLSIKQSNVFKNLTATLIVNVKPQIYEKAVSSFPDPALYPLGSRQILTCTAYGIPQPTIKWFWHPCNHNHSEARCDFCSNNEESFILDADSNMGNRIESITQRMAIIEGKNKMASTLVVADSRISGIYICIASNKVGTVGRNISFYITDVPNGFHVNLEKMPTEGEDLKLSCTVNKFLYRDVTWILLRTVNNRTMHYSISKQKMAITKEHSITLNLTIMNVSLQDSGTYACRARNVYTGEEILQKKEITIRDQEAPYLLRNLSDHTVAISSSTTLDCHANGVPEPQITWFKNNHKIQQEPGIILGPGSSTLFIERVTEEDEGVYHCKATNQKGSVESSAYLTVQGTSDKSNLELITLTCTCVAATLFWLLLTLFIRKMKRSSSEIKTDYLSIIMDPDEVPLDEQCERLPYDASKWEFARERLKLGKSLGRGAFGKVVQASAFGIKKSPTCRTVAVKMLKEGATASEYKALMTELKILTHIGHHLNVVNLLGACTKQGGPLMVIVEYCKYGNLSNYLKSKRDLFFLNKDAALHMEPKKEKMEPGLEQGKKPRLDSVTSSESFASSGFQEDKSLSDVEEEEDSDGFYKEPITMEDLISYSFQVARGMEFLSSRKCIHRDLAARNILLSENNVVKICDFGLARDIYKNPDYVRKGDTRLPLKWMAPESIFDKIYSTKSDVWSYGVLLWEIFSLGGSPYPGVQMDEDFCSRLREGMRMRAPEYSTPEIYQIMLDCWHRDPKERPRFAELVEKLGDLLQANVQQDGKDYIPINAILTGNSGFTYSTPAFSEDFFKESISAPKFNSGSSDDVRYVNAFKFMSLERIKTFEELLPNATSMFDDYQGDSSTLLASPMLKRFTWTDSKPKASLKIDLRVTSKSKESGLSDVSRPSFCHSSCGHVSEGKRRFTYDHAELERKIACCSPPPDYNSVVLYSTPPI
EGFR, sequence (P00533 25-1210, species assumed): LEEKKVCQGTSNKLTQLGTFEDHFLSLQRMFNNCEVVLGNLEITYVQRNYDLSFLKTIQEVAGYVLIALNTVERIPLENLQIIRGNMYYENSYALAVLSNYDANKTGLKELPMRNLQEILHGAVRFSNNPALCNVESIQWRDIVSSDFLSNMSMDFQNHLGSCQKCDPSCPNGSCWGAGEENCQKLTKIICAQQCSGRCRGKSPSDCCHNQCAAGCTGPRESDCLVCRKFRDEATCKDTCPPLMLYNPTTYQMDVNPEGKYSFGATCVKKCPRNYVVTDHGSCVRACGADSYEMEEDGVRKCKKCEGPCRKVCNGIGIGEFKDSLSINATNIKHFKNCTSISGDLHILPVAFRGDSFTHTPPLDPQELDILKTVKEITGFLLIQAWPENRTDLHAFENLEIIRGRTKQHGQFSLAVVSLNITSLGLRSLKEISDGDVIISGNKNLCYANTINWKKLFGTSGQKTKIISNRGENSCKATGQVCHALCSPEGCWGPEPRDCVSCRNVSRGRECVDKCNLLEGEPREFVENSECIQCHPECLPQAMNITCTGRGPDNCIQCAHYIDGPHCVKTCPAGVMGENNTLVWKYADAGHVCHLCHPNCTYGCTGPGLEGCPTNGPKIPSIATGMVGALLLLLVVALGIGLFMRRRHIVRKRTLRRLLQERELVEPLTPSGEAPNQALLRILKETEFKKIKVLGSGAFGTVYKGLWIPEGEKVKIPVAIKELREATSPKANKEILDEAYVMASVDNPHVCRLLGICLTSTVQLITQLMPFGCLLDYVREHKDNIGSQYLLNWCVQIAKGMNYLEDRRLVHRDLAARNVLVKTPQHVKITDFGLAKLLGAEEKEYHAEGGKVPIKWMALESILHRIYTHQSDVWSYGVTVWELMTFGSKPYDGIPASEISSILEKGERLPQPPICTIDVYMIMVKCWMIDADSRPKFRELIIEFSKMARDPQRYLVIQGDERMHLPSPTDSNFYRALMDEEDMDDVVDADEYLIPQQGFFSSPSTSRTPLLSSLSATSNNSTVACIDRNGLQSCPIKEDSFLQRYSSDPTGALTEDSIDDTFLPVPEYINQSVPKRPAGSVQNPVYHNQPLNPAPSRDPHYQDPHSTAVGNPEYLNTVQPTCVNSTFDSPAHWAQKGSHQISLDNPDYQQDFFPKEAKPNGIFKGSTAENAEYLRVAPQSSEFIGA

`CCN1CCC(Oc2ccc3c(c2)/C(=C(\c2cc(F)cc(F)c2)c2nc4ccccc4[nH]2)C(=O)N3)CC1` [Entry 33, (3Z)-3-[1H-benzimidazol-2-yl(3,5-difluorophenyl)methylidene]-5-[(1-ethylpiperidin-4-yl)oxy]-1,3-dihydro-2H-indol-2-one]: the IC50 in experiment [1] is 50 to 500 nM; in experiment [2], 50 to 500 nM; in experiment [3], < 50 nM; in experiment [4], < 50 nM; in experiment [5], 500 to 5000 nM; in experiment [6], 0.5 to 5 µM. Besides, the IC50 in experiment [7] is 0.5 to 5 µM; in experiment [8] it was < 50 nM.
`CCN1CCC(Nc2ccc3c(c2)/C(=C(\c2ccc(C)c(F)c2)c2nc4ccccc4[nH]2)C(=O)N3)CC1` [Entry 50, (3Z)-3-[1H-benzimidazol-2-yl(3-fluoro-4-methylphenyl)methylidene]-5-{(1-ethylpiperidin-4-yl)amino]-1,3-dihydro-2H-indol-2-one]: the IC50 in experiment [1] was < 50 nM; in experiment [2], < 50 nM; in experiment [3] it was < 50 nM; in experiment [4] it was < 50 nM; in experiment [5], < 50 nM; in experiment [6], 0.5 to 5 µM. Moreover, the IC50 in experiment [7] is 0.5 to 5 µM; in experiment [8], < 50 nM.
For `CN(C)CCN1CCC(Nc2ccc3c(c2)/C(=C(\c2ccccc2)c2nc4ccccc4[nH]2)C(=O)N3)CC1` [Entry 29, (3Z)-3-[1H-benzimidazol-2-yl(phenyl)methylidene]-5-({1-[2-(dimethylamino)ethyl]piperidin-4-yl}amino)-1,3-dihydro-2H-indol-2-one], the IC50 lay in the range of 500 to 5000 nM in experiment [1]; 50 to 500 nM in experiment [3]; 50 to 500 nM in experiment [4]; 500 to 5000 nM in experiment [5]; 0.5 to 5 µM in experiment [6]; 0.5 to 5 µM in experiment [7]. The IC50 in experiment [8] was < 50 nM.
On to `CCN1CCC(Nc2ccc3c(c2)/C(=C(\c2cccc([N+](=O)[O-])c2)c2nc4ccccc4[nH]2)C(=O)N3)CC1` [Entry 19, (3Z)-3-[1H-benzimidazol-2-yl(3-nitrophenyl)methylidene]-5-[(1-ethylpiperidin-4-yl)amino]-1,3-dihydro-2H-indol-2-one], for which the IC50 in experiment [1] is 50 to 500 nM; in experiment [3] it was < 50 nM; in experiment [4] it was 50 to 500 nM; in experiment [5], 500 to 5000 nM; in experiment [6], 0.5 to 5 µM; in experiment [7], 0.5 to 5 µM. Besides, in experiment [8], the IC50 was < 50 nM.
Consider `CS(=O)(=O)N1CCC(Nc2ccc3c(c2)/C(=C(\c2ccccc2)c2nc4ccccc4[nH]2)C(=O)N3)CC1` [Entry 30, (3Z)-3-[1H-benzimidazol-2-yl(phenyl)methylidene]-5-{[1-(methylsulfonyl)piperidin-4-yl]amino}-1,3-dihydro-2H-indol-2-one], for which the IC50 in experiment [1] fell in the range of 500 to 5000 nM; in experiment [3], 500 to 5000 nM; in experiment [4], 500 to 5000 nM; in experiment [5], 500 to 5000 nM; in experiment [6], 0.5 to 5 µM; in experiment [7], 0.5 to 5 µM. Moreover, the IC50 in experiment [8] lay in the range of 50 to 500 nM.
For the molecule `CCN1CCC(Nc2ccc3c(c2)/C(=C(\c2ccccc2)c2nc(CCN4C(=O)c5ccccc5C4=O)c[nH]2)C(=O)N3)CC1` [Entry 28, 2-(2-{2-[(Z)-{5-[(1-ethylpiperidin-4-yl)amino]-2-oxo-1,2-dihydro-3H-indol-3-ylidene}(phenyl)methyl]-1H-imidazol-4-yl}ethyl)-1H-isoindole-1,3(2H)-dione], the IC50 in experiment [1] is 50 to 500 nM; in experiment [3] it was < 50 nM; in experiment [4], 50 to 500 nM; in experiment [5] it was 500 to 5000 nM; in experiment [6], 0.5 to 5 µM; in experiment [7], 0.5 to 5 µM. Also, the IC50 in experiment [8] is < 50 nM.
With `CCN1CCC(Nc2ccc3c(c2)/C(=C(\c2ccc(OC)cc2)c2nc4cc(OC)ccc4[nH]2)C(=O)N3)CC1` [Entry 5, (3Z)-5-[(1-ethylpiperidin-4-yl)amino]-3-{[5-(methyloxy)-1H-benzimidazol-2-yl][4-(methyloxy)phenyl]methylidene}-1,3-dihydro-2H-indol-2-one], the IC50 in experiment [1] was 50 to 500 nM; in experiment [3] it was < 50 nM; in experiment [4] it was < 50 nM; in experiment [5], 500 to 5000 nM; in experiment [6], 0.5 to 5 µM; in experiment [7], > 5 µM. For the same molecule, in experiment [8], the IC50 was < 50 nM.
With `O=C1Nc2ccc(OC3CCN(Cc4ccccc4)CC3)cc2/C1=C(\c1ccccc1)c1nc2ccccc2[nH]1` [Entry 34, (3Z)-3-[1H-benzimidazol-2-yl(phenyl)methylidene]-5-{(1-(phenylmethyl)piperidin-4-yl]oxy}-1,3-dihydro-2H-indol-2-one], the IC50 is 500 to 5000 nM in experiment [1]; < 50 nM in experiment [3]; < 50 nM in experiment [4]; 500 to 5000 nM in experiment [5]; 0.5 to 5 µM in experiment [6]; 0.5 to 5 µM in experiment [7]. The IC50 in experiment [8] was < 50 nM.
For `COc1ccc2[nH]c(/C(=C3\C(=O)Nc4ccc(NC5CCN(Cc6ccccc6)C5)cc43)c3ccccc3)nc2c1` (centres unmarked) [Entry 1, (3Z)-3-[[5-(methyloxy)-1H-benzimidazol-2-yl](phenyl)methylidene[-5-}[1-(phenylmethyl)pyrrolidin-3-yl]amino}-1,3-dihydro-2H-indol-2-one], the IC50 in experiment [1] was 50 to 500 nM; in experiment [3] it was 50 to 500 nM; in experiment [4] it was 50 to 500 nM; in experiment [5], 500 to 5000 nM; in experiment [6] it was > 5 µM; in experiment [7], 0.5 to 5 µM. Besides, in experiment [8], the IC50 was < 50 nM.
For the molecule `CCN1CCC(Nc2ccc3c(c2)/C(=C(\c2cccc(C(=N)N)c2)c2nc4ccccc4[nH]2)C(=O)N3)CC1` [Entry 23, 3-((Z)-1H-benzimidazol-2-yl{5-[(1-ethylpiperidin-4-yl)amino]-2-oxo-1,2-dihydro-3H-indol-3-ylidene}methyl) benzenecarboximidamide], the IC50 was in the range of 500 to 5000 nM in experiment [1]; 500 to 5000 nM in experiment [3]; 500 to 5000 nM in experiment [4]; 500 to 5000 nM in experiment [5]; 0.5 to 5 µM in experiment [6]; 0.5 to 5 µM in experiment [7]. In experiment [8], this molecule had an IC50 of 500 to 5000 nM.
In the case of `CCN1CCC(Nc2ccc3c(c2)/C(=C(\c2cccc(C#N)c2)c2nc4ccccc4[nH]2)C(=O)N3)CC1` [Entry 20, 3-((Z)-1H-benzimidazol-2-yl{5-[(1-ethylpiperidin-4-yl)amino]-2-oxo-1,2-dihydro-3H-indol-3-ylidene)methyl) benzonitrile], the IC50 lay in the range of 500 to 5000 nM in experiment [1]; 50 to 500 nM in experiment [3]; 50 to 500 nM in experiment [4]; 500 to 5000 nM in experiment [5]; 0.5 to 5 µM in experiment [6]; 0.5 to 5 µM in experiment [7]. In addition, the IC50 in experiment [8] was < 50 nM.
As for `CCN1CCC(Nc2ccc3c(c2)/C(=C(\c2ccc(OC)cc2)c2ncc[nH]2)C(=O)N3)CC1` [Entry 15, (3Z)-5-[(1-ethylpiperidin-4-yl)amino]-3-{1H-imidazol-2-yl[4-(methyloxy)phenyl]methylidene}-1,3-dihydro-2H-indol-2-one], the IC50 in experiment [1] is 50 to 500 nM; in experiment [3], < 50 nM; in experiment [4], < 50 nM; in experiment [5], 500 to 5000 nM; in experiment [6], 0.5 to 5 µM; in experiment [7], 0.5 to 5 µM. For the same molecule, in experiment [8], the IC50 was < 50 nM.

Usually IC50 stands for the concentration needed to halve the response being measured.
